Measurements: patent US6590127B1, “Process for the preparation of pharmacologically active α-asarone from toxic β-asarone rich acorus calamus oil” (priority 2002, dated 2003)

Key:
rats = settings: cited from earlier work
mice = settings: cited from earlier work
[1] = tested on: mice fed with a high cholesterol diet; settings: oral dose of 80 mg/kg; cited from earlier work
[2] = Toxicity of 2,4,5-trimethoxyphenylpropane compared with β-asarone
animals = settings: cited from earlier work
human lymphocytes = human lymphocytes in-vitro after metabolic activation; cited from earlier work

For C/C=C/c1cc(OC)c(OC)cc1OC [α-asarone, trans-2,4,5-trimethoxyphenyl-1-propene], the toxicity (rats) is listed as “no toxic effect is observed”, the toxicity (mice) is listed as “no toxic effect is observed” and the decrease of cholesterol [1] is listed as 49.6%. The decrease of triglycerides [1] was 83.7% and the “high density lipoprotein (HDL)-cholesterol” value [1] was “increased”.
With CCCc1cc(OC)c(OC)cc1OC [2,4,5-trimethoxyphenylpropane, 1-propyl-2,4,5-trimethoxybenzene] the “toxicity relative to β-asarone” value [2] was “five times less toxic”.
In the case of C/C=C\c1cc(OC)c(OC)cc1OC [β-asarone], the tumor induction (animals; after oral administration) is listed as “induce tumors in the duodenal region”, the carcinogenicity (animals; animals) is listed as “carcinogenic” and the chromosome damaging effect (human lymphocytes) is listed as “chromosome damaging effect”.
